Measurements taken from US9617240B2 (TEIJIN PHARMA LIMITED, priority 2013, dated 2017).

Legend:
[1] = target: T1, oxidase type xanthine oxidase (derived from buttermilk) (Bos taurus, UniProt P80457); assay: Xanthine oxidase inhibitory activity (absorbance change at 290 nm); format: biochemical; settings: xanthine substrate, 100 mM phosphate buffer, absorbance at 290 nm for 5 minutes; read-out: Inhibitory Activity (50% inhibitory concentration with respect to oxidase type xanthine oxidase)
T1 construct: oxidase type xanthine oxidase (derived from buttermilk, supplied by Calbiochem Novabiochem Corp.); purchased Calbiochem Novabiochem Corp; host or cells: buttermilk (natural source)
T1 sequence (P80457 whole entry): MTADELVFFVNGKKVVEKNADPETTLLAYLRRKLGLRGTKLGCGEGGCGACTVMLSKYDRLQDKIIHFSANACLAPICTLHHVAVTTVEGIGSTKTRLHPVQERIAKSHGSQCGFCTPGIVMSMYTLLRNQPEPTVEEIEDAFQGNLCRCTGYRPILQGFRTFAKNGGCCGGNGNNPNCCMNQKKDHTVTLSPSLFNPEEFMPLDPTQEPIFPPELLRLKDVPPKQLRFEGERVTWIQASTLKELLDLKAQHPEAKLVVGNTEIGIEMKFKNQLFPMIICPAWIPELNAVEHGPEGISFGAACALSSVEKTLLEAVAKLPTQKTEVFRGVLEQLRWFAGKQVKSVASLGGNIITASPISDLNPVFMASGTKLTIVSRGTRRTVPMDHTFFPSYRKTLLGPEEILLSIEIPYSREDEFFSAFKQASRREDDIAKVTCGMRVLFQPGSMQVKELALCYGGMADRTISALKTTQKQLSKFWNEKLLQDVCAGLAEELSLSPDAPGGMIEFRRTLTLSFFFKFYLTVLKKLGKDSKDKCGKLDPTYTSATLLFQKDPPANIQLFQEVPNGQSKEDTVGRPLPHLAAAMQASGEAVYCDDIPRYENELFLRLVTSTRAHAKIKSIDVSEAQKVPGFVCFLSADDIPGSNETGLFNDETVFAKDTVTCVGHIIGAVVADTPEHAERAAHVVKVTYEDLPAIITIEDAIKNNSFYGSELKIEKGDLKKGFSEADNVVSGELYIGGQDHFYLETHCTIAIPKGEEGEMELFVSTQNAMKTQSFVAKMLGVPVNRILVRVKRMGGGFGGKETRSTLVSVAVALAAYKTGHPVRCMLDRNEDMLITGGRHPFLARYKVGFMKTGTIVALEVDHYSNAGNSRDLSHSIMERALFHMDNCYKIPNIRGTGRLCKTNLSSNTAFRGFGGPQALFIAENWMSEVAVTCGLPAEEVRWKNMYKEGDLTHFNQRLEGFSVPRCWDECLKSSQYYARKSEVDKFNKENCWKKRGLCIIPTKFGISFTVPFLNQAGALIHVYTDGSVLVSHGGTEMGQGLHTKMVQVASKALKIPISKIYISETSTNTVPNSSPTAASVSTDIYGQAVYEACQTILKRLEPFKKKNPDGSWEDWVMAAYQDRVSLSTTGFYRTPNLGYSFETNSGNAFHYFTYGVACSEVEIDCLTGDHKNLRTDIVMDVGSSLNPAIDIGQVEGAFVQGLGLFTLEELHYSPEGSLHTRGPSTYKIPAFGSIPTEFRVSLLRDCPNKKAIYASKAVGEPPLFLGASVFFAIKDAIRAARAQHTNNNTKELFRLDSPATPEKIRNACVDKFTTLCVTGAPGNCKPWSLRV
Protocol: The xanthine oxidase inhibitory activity was measured for the compounds synthesized according to the above Examples.
After a test compound was dissolved in DMSO (manufactured by Sigma Co.) so that the concentration is 20 mM, the test compound was prepared and used at a desired concentration at the time of use.
The evaluation of the xanthine oxidase inhibitory activity of the compounds of the present invention was conducted by partially modifying the method described in the literature (Method Enzymatic Analysis, 1, 521-522, 1974). The present evaluation is based on the oxidase type xanthine oxidase inhibitory activity evaluation. That is, a xanthine (manufactured by Sigma Co.) solution prepared at 10 mM in advance using a 20 mM sodium hydroxide solution was adjusted to 30 μM using a 100 mM phosphate buffer solution, and 75 μL/well of each solution was added into a 96-well plate. Aliquots (1.5 μL/well) of each test sample, which was diluted with DMSO so that the concentration is 100 times the final concentration, were added into a 96-well plate, and after mixing, the absorbance at 290 nm was measured by a microplate reader SPECTRA MAX Plus 384 (manufactured by Molecular Devices, LLC). Subsequently, oxidase type xanthine oxidase (derived from buttermilk, supplied by Calbiochem Novabiochem Corp.) was prepared at 30.6 mU/mL using a 100 mM phosphate buffer solution and 73.5 μL/well of each solution was added. Immediately after mixing, the change in absorbance at 290 nm was measured for 5 minutes. The enzyme activity when DMSO was used instead of a test compound solution was defined as 100%, the inhibitory rate of the test compounds was calculated and the 50% inhibitory concentration with respect to oxidase type xanthine oxidase was calculated by fitting to the dose-response curve.
Note that the symbols (+, ++, +++) in the table represent inhibitory activity values as shown below.

[2] = test system: level of uric acid in the blood; assay: Hypouricemic effect in normal rats; format: in vivo, Sprague-Dawley male rats; settings: oral gavage, 1 mg/kg
Protocol: A test compound suspended in a 0.5% methylcellulose solution was administered to 8 to 9 week-old Sprague-Dawley male rats (Japan Charles River Co.) by oral gavage administration using a feeding needle. After the blood was collected from the tail vein at 6 hours and 24 hours after administration, the plasma was separated. The level of uric acid in the blood sample was measured by uricase method using an absorption spectrometer as well as a uric acid determination kit (L type Wako UA F: Wako Pure Chemical Industries, Ltd.). The percentage of hypouricemic effect was determined by the following expression: Percentage of hypouricemic effect (%)=(Level of uric acid of the control animal−Level of uric acid of the test compound-administered animal)×100/Level of uric acid of the control animal.

[3] = test system: level of uric acid in the blood; assay: Hypouricemic effect in Cebus apella monkeys; format: in vivo; settings: gavage, 1 mg/kg
Protocol: To Cebus apella monkeys, test compounds suspended in 0.5% methylcellulose solution were administered by gavage into the stomach through the nasal cavity using a disposable catheter and a syringe. Blood was taken from the saphenous vein at 4 hours and 24 hours after the administration, after which the plasma was separated. The level of uric acid in the blood was measured using a uric acid measurement kit (L type Wako UA F: Wako Pure Chemical Industries, Ltd.) by the uricase method using an absorption spectrometer and the percentage of hypouricemic effect was determined by the following expression: Percentage of hypouricemic effect (%)=(Level of uric acid of the control animal−Level of uric acid of the test compound-administered animal)×100/Level of uric acid of the control animal.

[4] = test system: level of uric acid in the plasma; assay: Hypouricemic effect in beagle dogs; format: in vivo; settings: oral gavage, 3 mg/kg, 24 hours after administration
Protocol: The hypouricemic effect of the compound (I) in beagle dogs was confirmed. A test compound suspended in a 0.5% methyl cellulose solution was orally administered by gavage to beagle dogs (Kitayama Labes). Blood was drawn from the cephalic vein at 24 hours after administration and plasma was separated. The level of uric acid in the plasma sample was measured using an LC-MS/MS method and the percentage of hypouricemic effect was determined by the following expression: Percentage of hypouricemic effect (%)=(Level of uric acid of the control animal−Level of uric acid of the test compound-administered animal)×100/Level of uric acid of the control animal.

| SMILES | IC50 [1] [nM] | other results |
| --- | --- | --- |
| N#Cc1cc(-n2cc(C(=O)O)cn2)ncc1-c1ccccc1 [Compound 1, 1-(4-cyano-5-phenylpyridin-2-yl)-1H-pyrazole-4-carboxylic acid] | 1 to 5 | Percentage of hypouricemic effect ([2]; 6 hours after administration): ≥ 70%; Percentage of hypouricemic effect ([2]; 24 hours after administration): ≥ 70%; Percentage of hypouricemic effect ([3]; 4 hours after administration): ≥ 50%; Percentage of hypouricemic effect ([3]; 24 hours after administration): ≥ 50%; Percentage of hypouricemic effect [4]: ≥ 50% |
| Cc1ccc(-c2ncc(-n3cc(C(=O)O)cn3)cc2C#N)cc1F [Compound 83, 1-[5-cyano-6-(3-fluoro-4-methylphenyl)pyridin-3-yl]-1H-pyrazole-4-carboxylic acid] | 5 to 10 | – |
| COc1ccc(F)c(-c2ncc(-n3cc(C(=O)O)cn3)cc2C#N)c1 [Compound 84, 1-[5-cyano-6-(2-fluoro-5-methoxyphenyl)pyridin-3-yl]-1H-pyrazole-4-carboxylic acid] | 5 to 10 | – |
| N#Cc1nc(-n2cc(C(=O)O)cn2)ccc1-c1ccccc1 [Compound 85, 1-(6-cyano-5-phenylpyridin-2-yl)-1H-pyrazole-4-carboxylic acid] | ≥ 10 | – |
| N#Cc1nc(-n2cc(C(=O)O)cn2)ccc1-c1ccccc1F [Compound 86, 1-[6-cyano-5-(2-fluorophenyl)pyridin-2-yl]-1H-pyrazole-4-carboxylic acid] | 5 to 10 | – |
| Cc1ccc(F)c(-c2ccc(-n3cc(C(=O)O)cn3)nc2C#N)c1 [Compound 88, 1-[6-cyano-5-(2-fluoro-5-methylphenyl)pyridin-2-yl]-1H-pyrazole-4-carboxylic acid] | ≥ 10 | – |
| N#Cc1nc(-n2cc(C(=O)O)cn2)ccc1-c1ccc(F)cc1 [Compound 89] | ≥ 10 | – |
| N#Cc1nc(-n2cc(C(=O)O)cn2)ccc1-c1ccc(F)cc1F [Compound 90, 1-[6-cyano-5-(2,4-difluorophenyl)pyridin-2-yl]-1H-pyrazole-4-carboxylic acid] | ≥ 10 | – |
| COc1ccc(F)c(-c2ccc(-n3cc(C(=O)O)cn3)nc2C#N)c1 [Compound 91, 1-[6-cyano-5-(2-fluoro-5-methoxyphenyl)pyridin-2-yl]-1H-pyrazole-4-carboxylic acid] | 5 to 10 | – |
| Cc1cccc(-c2ccc(-n3cc(C(=O)O)cn3)nc2C#N)c1 [Compound 92, 1-[6-cyano-5-(3-methylphenyl)pyridin-2-yl]-1H-pyrazole-4-carboxylic acid] | ≥ 10 | – |
| CCOc1cccc(-c2ccc(-n3cc(C(=O)O)cn3)nc2C#N)c1 [Compound 93, 1-[6-cyano-5-(3-ethoxyphenyl)pyridin-2-yl]-1H-pyrazole-4-carboxylic acid] | ≥ 10 | – |
| Cc1cc(-c2ccc(-n3cc(C(=O)O)cn3)nc2C#N)ccc1F [Compound 94, 1-[6-cyano-5-(4-fluoro-3-methylphenyl)pyridin-2-yl]-1H-pyrazole-4-carboxylic acid] | ≥ 10 | – |
| N#Cc1nc(-n2cc(C(=O)O)cn2)ccc1-c1c(F)cccc1F [Compound 95, 1-[6-cyano-5-(2,6-difluorophenyl)pyridin-2-yl]-1H-pyrazole-4-carboxylic acid] | 5 to 10 | – |
| COc1cccc(F)c1-c1ccc(-n2cc(C(=O)O)cn2)nc1C#N [Compound 96, 1-[6-cyano-5-(2-fluoro-6-methoxyphenyl)pyridin-2-yl]-1H-pyrazole-4-carboxylic acid] | ≥ 10 | – |
| N#Cc1cc(-n2cc(C(=O)O)c(N)n2)ncc1-c1ccccc1 [Compound 97, 3-amino-1-(4-cyano-5-phenylpyridin-2-yl)-1H-pyrazole-4-carboxylic acid] | 1 to 5 | – |
| N#Cc1cc(-n2cc(C(=O)O)c(N)n2)ncc1-c1ccccc1F [Compound 98, 3-amino-1-[4-cyano-5-(2-fluorophenyl)pyridin-2-yl]-1H-pyrazole-4-carboxylic acid] | 1 to 5 | – |
| N#Cc1cc(-n2cc(C(=O)O)c(N)n2)ncc1-c1ccc(F)cc1 [Compound 99, 3-amino-1-[4-cyano-5-(4-fluorophenyl)pyridin-2-yl]-1H-pyrazole-4-carboxylic acid] | 1 to 5 | – |
| N#Cc1cc(-n2cc(C(=O)O)c(N)n2)ncc1-c1ccc(Cl)cc1 [Compound 100, 3-amino-1-[4-cyano-5-(4-chlorophenyl)pyridin-2-yl]-1H-pyrazole-4-carboxylic acid] | 1 to 5 | – |
| Cc1cccc(-c2cnc(-n3cc(C(=O)O)c(N)n3)cc2C#N)c1 [Compound 101, 3-amino-1-[4-cyano-5-(3-methylphenyl)pyridin-2-yl]-1H-pyrazole-4-carboxylic acid] | 1 to 5 | – |
| COc1cccc(-c2cnc(-n3cc(C(=O)O)c(N)n3)cc2C#N)c1 [Compound 102, 3-amino-1-[4-cyano-5-(3-methoxyphenyl)pyridin-2-yl]-1H-pyrazole-4-carboxylic acid] | 1 to 5 | – |
| Cc1ccc(-c2cnc(-n3cc(C(=O)O)c(N)n3)cc2C#N)c(F)c1 [Compound 103, 3-amino-1-[4-cyano-5-(2-fluoro-4-methylphenyl)pyridin-2-yl]-1H-pyrazole-4-carboxylic acid] | 1 to 5 | – |
| Cc1ccc(F)c(-c2cnc(-n3cc(C(=O)O)c(N)n3)cc2C#N)c1 [Compound 104, 3-amino-1-[4-cyano-5-(2-fluoro-5-methylphenyl)pyridin-2-yl]-1H-pyrazole-4-carboxylic acid] | 1 to 5 | – |
| N#Cc1cc(-n2cc(C(=O)O)c(N)n2)ncc1-c1ccc(F)cc1F [Compound 105, 3-amino-1-[4-cyano-5-(2,4-difluorophenyl)pyridin-2-yl]-1H-pyrazole-4-carboxylic acid] | 1 to 5 | – |
| Cc1cc(-c2cnc(-n3cc(C(=O)O)c(N)n3)cc2C#N)ccc1F [Compound 106, 3-amino-1-[4-cyano-5-(4-fluoro-3-methylphenyl)pyridin-2-yl]-1H-pyrazole-4-carboxylic acid] | 1 to 5 | – |
| COc1ccc(F)c(-c2cnc(-n3cc(C(=O)O)c(N)n3)cc2C#N)c1 [Compound 107, 3-amino-1-[4-cyano-5-(2-fluoro-5-methoxyphenyl)pyridine-2-yl]-1H-pyrazole-4-carboxylic acid] | 1 to 5 | – |
